Patent publication US12077503B2, “Substituted cyclic amides and their use as herbicides” (FMC CORPORATION, priority 2015, dated 2024)
Read-outs that look alike come from different tables or passages of the source.

How the values were obtained:
Format in all cases: in vivo
[1] = test system: Kochia (Kochia scoparia); experiment: Test A preemergence; conditions: Bassia scoparia, pre-emergence, 240 h; for pest or weed control at 125 g/ha: 125 g ai/ha; for pest or weed control at 500 g/ha: 500 g ai/ha
In short: (§1)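 Visual injury, scored on a 0–100 scale relative to untreated controls, was recorded about 10 d after application. Treatments were a preemergence soil spray over planted seeds or a postemergence spray on plants at the one- to two-leaf stage, 2 to 10 cm tall, all in loam soil–sand blend in the greenhouse.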

[2] = test system: Galium (catchweed bedstraw, Galium aparine); experiment: Test A postemergence; conditions: Galium, post-emergence, 240 h; for pest or weed control at 125 g/ha: 125 g ai/ha
In short: as §1

[3] = test system: Kochia (Kochia scoparia); experiment: Test A postemergence; conditions: Bassia scoparia, post-emergence, 240 h; for pest or weed control at 125 g/ha: 125 g ai/ha
In short: as §1

[4] = test system: barnyardgrass (Echinochloa crus-galli); experiment: Test A postemergence; conditions: Echinochloa crus-galli, post-emergence, 240 h; for pest or weed control at 125 g/ha: 125 g ai/ha
In short: as §1

[5] = test system: blackgrass (Alopecurus myosuroides); experiment: Test A postemergence; conditions: Alopecurus myosuroides, post-emergence, 240 h; for pest or weed control at 125 g/ha: 125 g ai/ha
In short: as §1

[6] = test system: corn (Zea mays); experiment: Test A postemergence; conditions: Zea mays, post-emergence, 240 h; for Corn plant response rating (crop injury, 0 = no effect, 100 = complete kill) at 125 g/ha: postemergence, visual injury after approximately 10 d
In short: as §1

[7] = test system: giant foxtail (Setaria faberii); experiment: Test A postemergence; conditions: Setaria faberi, post-emergence, 240 h; for pest or weed control at 125 g/ha: 125 g ai/ha
In short: as §1

[8] = test system: pigweed (Amaranthus retroflexus); experiment: Test A postemergence; conditions: Amaranthus retroflexus, post-emergence, 240 h; for pest or weed control at 125 g/ha: 125 g ai/ha
In short: as §1

[9] = test system: ragweed (common ragweed, Ambrosia elatior); experiment: Test A postemergence; conditions: Ambrosia artemisiifolia, post-emergence, 240 h; for pest or weed control at 125 g/ha: 125 g ai/ha
In short: as §1

[10] = test system: ryegrass, Italian (Italian ryegrass, Lolium multiflorum); experiment: Test A postemergence; conditions: Lolium multiflorum, post-emergence, 240 h; for pest or weed control at 125 g/ha: 125 g ai/ha
In short: as §1

[11] = test system: wheat (Triticum aestivum); experiment: Test A postemergence; conditions: Triticum aestivum, post-emergence, 240 h; for plant injury at 125 g/ha: 125 g ai/ha
In short: as §1

[12] = test system: barnyardgrass (Echinochloa crus-galli); experiment: Test B flooded paddy test; conditions: Echinochloa crus-galli, Flood, 250 g ai/ha, read-out: Barnyardgrass plant response rating
In short: (§2)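 Response scored visually against untreated controls, 0 = no effect and 100 = complete control, 13–15 d after treatment in the greenhouse. Compounds added to paddy water held 3 cm above soil surface. Treatment given at 2-leaf stage.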

[13] = test system: ducksalad (Heteranthera limosa); experiment: Test B flooded paddy test; conditions: Heteranthera limosa, Flood, 250 g ai/ha, read-out: Ducksalad plant response rating
In short: as §2

[14] = test system: rice (Oryra sativa); experiment: Test B flooded paddy test; conditions: Oryza sativa, Flood, 250 g ai/ha, read-out: Rice plant response rating
In short: as §2

[15] = test system: sedge, umbrella (small-flower umbrella sedge, Cyperus difformis); experiment: Test B flooded paddy test; conditions: Cyperus difformis, Flood, 250 g ai/ha
In short: as §2

[16] = preemergence, visual rating after approx. 10 d, 0 to 100 scale where 0 is no effect and 100 is complete control, read-out: Plant response rating, Kochia
[17] = postemergence, visual injury after approximately 10 d, 0 to 100 scale (0 no effect, 100 complete control), read-out: Plant response rating, Galium
[18] = postemergence, visual injury after approximately 10 d, 0 to 100 scale (0 no effect, 100 complete control), read-out: Plant response rating, Kochia
[19] = postemergence, visual injury after approximately 10 d, 0 to 100 scale (0 no effect, 100 complete control), read-out: Plant response rating, Barnyardgrass
[20] = postemergence, visual injury after approximately 10 d, 0 to 100 scale (0 no effect, 100 complete control), read-out: Plant response rating, Blackgrass
[21] = 125 g ai/ha, 0 to 100 scale (0 no effect, 100 complete control)
[22] = postemergence, visual injury after approximately 10 d, 0 to 100 scale (0 no effect, 100 complete control), read-out: Plant response rating, Foxtail, Giant
[23] = postemergence, visual injury after approximately 10 d, 0 to 100 scale (0 no effect, 100 complete control), read-out: Plant response rating, Pigweed
[24] = postemergence, visual injury after approximately 10 d, 0 to 100 scale (0 no effect, 100 complete control), read-out: Plant response rating, Ragweed
[25] = postemergence, visual injury after approximately 10 d, 0 to 100 scale (0 no effect, 100 complete control), read-out: Plant response rating, Ryegrass, Italian
[26] = postemergence, visual injury after approximately 10 d, 0 to 100 scale (0 no effect, 100 complete control), read-out: Plant response rating, Wheat
[27] = scale of 0 to 100 where 0 is no effect and 100 is complete control
[28] = scale of 0 to 100 where 0 is no effect and 100 is complete control, read-out: Sedge, Umbrella plant response rating
[29] = 0 to 100 scale where 0 is no effect and 100 is complete control

## CC(F)(F)c1cccc([C@H]2CNC(=O)[C@@H]2C(=O)Nc2ccccc2F)c1 [Compound 782]
[1]; [16]
  pest or weed control at 125 g/ha: 80%
[1]; Preemergence, visual injury vs untreated controls after approximately 10 d, read-out: Kochia plant response rating (0 to 100 scale where 0 is no effect and 100 is complete control)
  pest or weed control at 500 g/ha: 90%
[2]; [17]
  pest or weed control at 125 g/ha: 70%
[3]; [18]
  pest or weed control at 125 g/ha: 10%
[4]; [19]
  pest or weed control at 125 g/ha: 90%
[5]; [20]
  pest or weed control at 125 g/ha: 70%
[6]; [21]
  Corn plant response rating (crop injury, 0 = no effect, 100 = complete kill) at 125 g/ha: 60%
[7]; [22]
  pest or weed control at 125 g/ha: 90%
[8]; [23]
  pest or weed control at 125 g/ha: 0%
[9]; [24]
  pest or weed control at 125 g/ha: 0%
[10]; [25]
  pest or weed control at 125 g/ha: 40%
[11]; [26]
  plant injury at 125 g/ha: 60%
[12]; [27]
  pest or weed control at 250 g/ha: 65%
[13]; [27]
  pest or weed control at 250 g/ha: 100%
[14]; [27]
  pest or weed control at 250 g/ha: 0%
[15]; [28]
  pest or weed control at 250 g/ha: 0%

## C=CCN1C[C@H](c2ccc(OC)c(F)c2)[C@@H](C(=O)Nc2ccccc2C(F)(F)F)C1=O [Compound 723]
[1]; [16]
  pest or weed control at 125 g/ha: 0%
[1]; preemergence, 0 to 100 scale, 0 = no effect, 100 = complete control, read-out: Plant response rating, Kochia
  pest or weed control at 500 g/ha: 0%
[2]; [17]
  pest or weed control at 125 g/ha: 0%
[3]; [18]
  pest or weed control at 125 g/ha: 0%
[4]; [19]
  pest or weed control at 125 g/ha: 0%
[5]; [20]
  pest or weed control at 125 g/ha: 0%
[6]; [21]
  Corn plant response rating (crop injury, 0 = no effect, 100 = complete kill) at 125 g/ha: 0%
[7]; [22]
  pest or weed control at 125 g/ha: 0%
[8]; [23]
  pest or weed control at 125 g/ha: 0%
[9]; [24]
  pest or weed control at 125 g/ha: 0%
[10]; [25]
  pest or weed control at 125 g/ha: 0%
[11]; [26]
  plant injury at 125 g/ha: 0%
[12]; [27]
  pest or weed control at 250 g/ha: 0%
[13]; [27]
  pest or weed control at 250 g/ha: 0%
[14]; [27]
  pest or weed control at 250 g/ha: 0%
[15]; [28]
  pest or weed control at 250 g/ha: 0%

## CN1C[C@H](c2ccc3c(c2)CCO3)[C@@H](C(=O)Nc2ccccc2F)C1=O [Compound 1321]
[1]; preemergence, 0 to 100 scale where 0 is no effect and 100 is complete control, read-out: Kochia plant response rating
  pest or weed control at 500 g/ha: 80%
[1]; Preemergence, 0 to 100 scale (0 no effect, 100 complete control), read-out: Plant response rating, Kochia
  pest or weed control at 125 g/ha: 50%
[2]; Postemergence, visual rating about 10 d after treatment, read-out: Galium plant response rating (0 to 100 scale)
  pest or weed control at 125 g/ha: 30%
[2]; Postemergence, 500 g ai/ha, visual injury, 0 to 100 scale (0 no effect, 100 complete control), approx. 10 d, read-out: Plant response rating, Galium
  pest or weed control at 500 g/ha: 50%
[3]; Postemergence, visual rating about 10 d after treatment, read-out: Kochia plant response rating (0 to 100 scale)
  pest or weed control at 125 g/ha: 0%
[3]; Postemergence, 500 g ai/ha, visual injury, 0 to 100 scale (0 no effect, 100 complete control), approx. 10 d, read-out: Plant response rating, Kochia
  pest or weed control at 500 g/ha: 50%
[4]; Postemergence, visual rating about 10 d after treatment, read-out: Barnyardgrass plant response rating (0 to 100 scale, 0 no effect, 100 complete control)
  pest or weed control at 125 g/ha: 90%
[4]; Postemergence, 500 g ai/ha, visual injury, 0 to 100 scale (0 no effect, 100 complete control), approx. 10 d, read-out: Plant response rating, Barnyardgrass
  pest or weed control at 500 g/ha: 90%
[5]; Postemergence, visual rating about 10 d after treatment, read-out: Blackgrass plant response rating (0 to 100 scale)
  pest or weed control at 125 g/ha: 30%
[5]; Postemergence, 500 g ai/ha, visual injury, 0 to 100 scale (0 no effect, 100 complete control), approx. 10 d, read-out: Plant response rating, Blackgrass
  pest or weed control at 500 g/ha: 50%
[6]; 125 g ai/ha, Postemergence, visual rating about 10 d after treatment, read-out: Corn plant response rating (0 to 100 scale)
  plant injury at 125 g/ha: 40%
[6]; Postemergence, 500 g ai/ha, visual injury, 0 to 100 scale (0 no effect, 100 complete control), approx. 10 d
  Corn plant response rating (crop injury, 0 = no effect, 100 = complete kill) at 500 g/ha: 70%
[7]; Postemergence, visual rating about 10 d after treatment, read-out: Foxtail, Giant plant response rating (0 to 100 scale)
  pest or weed control at 125 g/ha: 90%
[7]; Postemergence, 500 g ai/ha, visual injury, 0 to 100 scale (0 no effect, 100 complete control), approx. 10 d, read-out: Plant response rating, Foxtail, Giant
  pest or weed control at 500 g/ha: 90%
[8]; Postemergence, visual rating about 10 d after treatment, read-out: Pigweed plant response rating (0 to 100 scale)
  pest or weed control at 125 g/ha: 0%
[8]; Postemergence, 500 g ai/ha, visual injury, 0 to 100 scale (0 no effect, 100 complete control), approx. 10 d, read-out: Plant response rating, Pigweed
  pest or weed control at 500 g/ha: 0%
[9]; Postemergence, visual rating about 10 d after treatment, read-out: Ragweed plant response rating (0 to 100 scale)
  pest or weed control at 125 g/ha: 0%
[9]; Postemergence, 500 g ai/ha, visual injury, 0 to 100 scale (0 no effect, 100 complete control), approx. 10 d, read-out: Plant response rating, Ragweed
  pest or weed control at 500 g/ha: 20%
[10]; Postemergence, visual rating about 10 d after treatment, read-out: Ryegrass, Italian plant response rating (0 to 100 scale)
  pest or weed control at 125 g/ha: 20%
[10]; Postemergence, 500 g ai/ha, visual injury, 0 to 100 scale (0 no effect, 100 complete control), approx. 10 d, read-out: Plant response rating, Ryegrass, Italian
  pest or weed control at 500 g/ha: 50%
[11]; Postemergence, visual rating about 10 d after treatment, read-out: Wheat plant response rating (0 to 100 scale)
  plant injury at 125 g/ha: 20%
[11]; Postemergence, 500 g ai/ha, visual injury, 0 to 100 scale (0 no effect, 100 complete control), approx. 10 d, read-out: Plant response rating, Wheat
  plant injury at 500 g/ha: 50%
[12]; [29]
  pest or weed control at 250 g/ha: 90%
[13]; [29]
  pest or weed control at 250 g/ha: 85%
[14]; [29]
  pest or weed control at 250 g/ha: 0%
[15]; 360 h, visually evaluated after 13 to 15 d, read-out: Plant response rating, Sedge, Umbrella (0 to 100 scale where 0 is no effect and 100 is complete control)
  pest or weed control at 250 g/ha: 0%
